From publication PMC10137938 (Foods, 2023) come the findings set out here.

Residues, ends and D or L forms follow the SMILES beside them.

ACE, sequence (P12821 30-1306, species assumed): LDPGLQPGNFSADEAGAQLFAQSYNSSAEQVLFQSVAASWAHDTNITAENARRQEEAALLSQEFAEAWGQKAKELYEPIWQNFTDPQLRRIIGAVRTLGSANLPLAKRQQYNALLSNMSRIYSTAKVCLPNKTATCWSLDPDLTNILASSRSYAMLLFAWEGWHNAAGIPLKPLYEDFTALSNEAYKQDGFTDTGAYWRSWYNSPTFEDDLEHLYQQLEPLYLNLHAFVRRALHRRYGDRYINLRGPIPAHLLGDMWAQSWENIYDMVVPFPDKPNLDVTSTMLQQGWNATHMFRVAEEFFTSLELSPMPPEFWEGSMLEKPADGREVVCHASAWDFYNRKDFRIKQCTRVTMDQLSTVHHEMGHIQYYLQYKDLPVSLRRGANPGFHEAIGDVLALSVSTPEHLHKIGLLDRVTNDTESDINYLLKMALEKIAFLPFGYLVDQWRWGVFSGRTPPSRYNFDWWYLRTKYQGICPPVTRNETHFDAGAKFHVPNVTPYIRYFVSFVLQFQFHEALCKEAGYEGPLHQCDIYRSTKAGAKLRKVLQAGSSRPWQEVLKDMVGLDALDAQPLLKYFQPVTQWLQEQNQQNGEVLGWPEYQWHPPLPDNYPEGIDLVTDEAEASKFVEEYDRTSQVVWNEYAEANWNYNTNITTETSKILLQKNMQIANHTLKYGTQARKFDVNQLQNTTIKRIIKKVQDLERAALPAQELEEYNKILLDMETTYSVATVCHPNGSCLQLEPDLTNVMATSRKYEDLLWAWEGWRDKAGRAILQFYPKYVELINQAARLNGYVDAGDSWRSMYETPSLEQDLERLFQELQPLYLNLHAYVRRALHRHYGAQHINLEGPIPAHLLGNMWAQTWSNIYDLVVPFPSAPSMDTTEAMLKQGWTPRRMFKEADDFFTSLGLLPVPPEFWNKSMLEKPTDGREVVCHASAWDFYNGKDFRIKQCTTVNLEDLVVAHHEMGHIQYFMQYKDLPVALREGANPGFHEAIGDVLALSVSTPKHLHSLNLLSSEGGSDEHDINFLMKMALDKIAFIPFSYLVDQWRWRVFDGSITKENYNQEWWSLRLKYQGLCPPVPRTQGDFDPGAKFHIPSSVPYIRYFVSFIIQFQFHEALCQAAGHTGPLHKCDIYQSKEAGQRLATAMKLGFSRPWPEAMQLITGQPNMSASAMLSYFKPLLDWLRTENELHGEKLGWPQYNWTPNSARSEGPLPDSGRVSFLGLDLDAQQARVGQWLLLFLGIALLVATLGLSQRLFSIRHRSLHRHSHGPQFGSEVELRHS

In the first assay the target is Angiotensin-converting enzyme (ACE) (UniProt P12821).
Angiotensin-converting enzyme (ACE), sequence (P12821 30-1306): as the sequence (P12821 30-1306, species assumed) above
Assay: not given
Conditions: not given
tetrapeptide WFRV gave an IC50 of inhibition of ACE activity (hydrolysis of HHL to hippuric acid, HPLC at 228 nm, 37 °C) of 31.8 µM.

In the case of tetrapeptide RRYQ, the IC50 of inhibition of ACE activity (hydrolysis of HHL to hippuric acid, HPLC at 228 nm, 37 °C) worked out at 115 µM.

WFSW [tetrapeptide WFSW] registered an IC50 of inhibition of ACE activity (hydrolysis of HHL to hippuric acid, HPLC at 228 nm, 37 °C) of 148 µM.

WRFF [tetrapeptide WRFF] returned an IC50 of inhibition of ACE activity (hydrolysis of HHL to hippuric acid, HPLC at 228 nm, 37 °C) of 141 µM.

WRQF [tetrapeptide WRQF] yielded an IC50 of inhibition of ACE activity (hydrolysis of HHL to hippuric acid, HPLC at 228 nm, 37 °C) of 29.6 µM.

Turning to WWNW [tetrapeptide WWNW], the IC50 of inhibition of ACE activity (hydrolysis of HHL to hippuric acid, HPLC at 228 nm, 37 °C) turned out to be 26.4 µM.

Molecule RWWD [tetrapeptide RWWD] returned an IC50 of inhibition of ACE activity (hydrolysis of HHL to hippuric acid, HPLC at 228 nm, 37 °C) of 129 µM.

As for YYWK [tetrapeptide YYWK], the IC50 of inhibition of ACE activity (hydrolysis of HHL to hippuric acid, HPLC at 228 nm, 37 °C) turned out to be 20 µM.

The molecule WWDW [tetrapeptide WWDW] gave an IC50 of inhibition of ACE activity (hydrolysis of HHL to hippuric acid, HPLC at 228 nm, 37 °C) of 36.8 µM.

As to WWTY [tetrapeptide WWTY], the IC50 of inhibition of ACE activity (hydrolysis of HHL to hippuric acid, HPLC at 228 nm, 37 °C) was found to be 28.5 µM.

In the next assay the target is ACE (Homo sapiens, UniProt P12821). Nature of the assay: Assay of ACE inhibitory activity (HHL hydrolysis, HPLC of hippuric acid). The assay is classed as biochemical. Particulars: in vitro; substrate HHL, borate buffer, 37 °C, 5 min coincubation with HHL, 30 min reaction, HCl stop; 7 concentrations; HPLC C18 at 228 nm; GraphPad Prism 7.0. The method, then:
IC50 refers to the semi-inhibitory concentration; here, the principle of in vitro IC50 determination of the potential ACE inhibitory peptide is that ACE can hydrolyse HHL into […] and dipeptide. HHL and tetrapeptide are competitive, and when ACE binds to the tetrapeptide, it will reduce the production of the product […]; the IC50 activity of the tetrapeptide is when it is reduced by half of the original concentration. The water bath temperature was controlled at 37 °C, and the initial mass concentration of each tetrapeptide was […]. The tetrapeptide was diluted with borate buffer solution into 7 concentration gradients, and coincubated with HHL buffer for 5 min. Then, the ACE solution was added to initiate the reaction, and the reaction was terminated by the addition of HCl after 30 min of system reaction. Afterwards, the reaction was analysed on a C18 column, with HPLC detection at 228 nm and an injection volume of 10 μL. The mobile phases were water and acetonitrile at 75% and 25%, respectively, with a flow rate of 1 mL/min, and isocratic elution for 7 min (acetonitrile and water containing 0.1% trifluoroacetic acid). ACE inhibition was calculated as ACE inhibition = ((b − c) − (a − c))/(b − c) × 100% (a: peak area of hippuric acid in the experimental group; b: peak area of hippuric acid in the blank group; c: peak area of hippuric acid in the control group), and the inhibition rate was converted into IC50 values by the software graphpad prism 7.0.
As to `NCC(=O)NCC(=O)N[C@@H](CO)C(=O)NCC(=O)O` [GGSG] (H-GGSG-OH), the IC50 (in general, the midpoint of a concentration-inhibition curve) is above 5000 µM.

Consider `N=C(N)NCCC[C@H](NC(=O)[C@@H](N)Cc1c[nH]c2ccccc12)C(=O)N[C@@H](CCC(N)=O)C(=O)N[C@@H](Cc1ccccc1)C(=O)O` [WRQF] (H-WRQF-OH), for which the half-maximal inhibitory concentration (IC50) was found to be 29.6 ± 6.75 µM.

In the case of `N=C(N)NCCC[C@H](N)C(=O)N[C@@H](Cc1c[nH]c2ccccc12)C(=O)N[C@@H](Cc1c[nH]c2ccccc12)C(=O)N[C@@H](CC(=O)O)C(=O)O` [RWWD] (H-RWWD-OH), the IC50 was 129 ± 8.32 µM.

Turning to `N[C@@H](Cc1c[nH]c2ccccc12)C(=O)N[C@@H](Cc1ccccc1)C(=O)N[C@@H](CO)C(=O)N[C@@H](Cc1c[nH]c2ccccc12)C(=O)O` [WFSW] (H-WFSW-OH), the IC50 is 148 ± 14.3 µM.

As to `N[C@@H](CO)C(=O)NCC(=O)NCC(=O)NCC(=O)O` [SGGG] (H-SGGG-OH), the IC50 was above 5000 µM.

Take `CC(C)[C@H](NC(=O)[C@H](CCCNC(=N)N)NC(=O)[C@H](Cc1ccccc1)NC(=O)[C@@H](N)Cc1c[nH]c2ccccc12)C(=O)O` [WFRV] (H-WFRV-OH): the concentration for half-maximal inhibition (IC50) was 31.8 ± 0.83 µM.

Consider `C[C@@H](O)[C@H](NC(=O)[C@H](Cc1c[nH]c2ccccc12)NC(=O)[C@@H](N)Cc1c[nH]c2ccccc12)C(=O)N[C@@H](Cc1ccc(O)cc1)C(=O)O` [WWTY] (H-WWTY-OH), for which the IC50 came out at 28.5 ± 0.99 µM.

For the molecule `NCCCC[C@H](NC(=O)[C@H](Cc1c[nH]c2ccccc12)NC(=O)[C@H](Cc1ccc(O)cc1)NC(=O)[C@@H](N)Cc1ccc(O)cc1)C(=O)O` [YYWK] (H-YYWK-OH), the IC50 turned out to be 20 ± 8.19 µM.

`NC(=O)C[C@H](NC(=O)[C@H](Cc1c[nH]c2ccccc12)NC(=O)[C@@H](N)Cc1c[nH]c2ccccc12)C(=O)N[C@@H](Cc1c[nH]c2ccccc12)C(=O)O` [WWNW] (H-WWNW-OH): the IC50 was found to be 26.4 ± 3.81 µM.

As for `N=C(N)NCCC[C@H](NC(=O)[C@@H](N)Cc1c[nH]c2ccccc12)C(=O)N[C@@H](Cc1ccccc1)C(=O)N[C@@H](Cc1ccccc1)C(=O)O` [WRFF] (H-WRFF-OH), the IC50 was 141 ± 3.9 µM.

`N=C(N)NCCC[C@H](NC(=O)[C@@H](N)CCCNC(=N)N)C(=O)N[C@@H](Cc1ccc(O)cc1)C(=O)N[C@@H](CCC(N)=O)C(=O)O` [RRYQ] (H-RRYQ-OH): the IC50 was found to be 115 ± 6.15 µM.

As for `N[C@@H](Cc1c[nH]c2ccccc12)C(=O)N[C@@H](Cc1c[nH]c2ccccc12)C(=O)N[C@@H](CC(=O)O)C(=O)N[C@@H](Cc1c[nH]c2ccccc12)C(=O)O` [WWDW] (H-WWDW-OH), the IC50 was determined as 36.8 ± 1.32 µM.
